Source: patent publication US9718771B2, “Aniline derivative, pharmaceutical composition containing same, and use thereof” (Kissei Pharmaceutical Co., Ltd., priority 2014, dated 2017)

Key:
[1] = test system: Naïve T cells-transferred colitis model; experiment: Drug efficiency evaluation in naïve T cells-transferred colitis model; format: in vivo; settings: SCID mice, mean ± standard error; for Body weight change ratio (%): oral twice a day from day 15, 15 mg/kg, day 30; for Colon weight (%) / DAI score (%): oral twice a day, 15 mg/kg, vehicle group = 100%
Description: The Drug Efficiency Evaluation in Naïve T Cells—Transferred Colitis Model
(1) Purification of CD45RB Positive Naïve T Cells and Transfer the Cells into SCID Mice
After female BALB/c mice (Charles River Japan, 8-weeks-old in use) were sacrificed by blood removal from cervical vein under inhalation anesthesia with isoflurane spleens were harvested from these mice. Spleens were washed with ice-cold PBS (phosphate buffered saline, Invitrogen) and stored in 50 mL tube containing PBS on ice. Spleens stored on ice were mashed with the upper portion of slide glasses inside a biological safety cabinet, and filtered through a cell filter (pore size 70 μm), and the filtrate was centrifuged at 500×g, room temperature for 5 minutes. After the supernatant was removed, 12 mL of RBC lysis buffer (Biolegend) was added to a cell pellet and it was resuspended and left for about 3 minutes. The supernatant was removed after centrifugation and the hemolytic process was performed by repeating same procedure once again.
The cells were purified with Mouse Naive T cell CD4^+/CD62L^+/CD44^low Colum Kit (R&D systems). The cells performed with the hemolytic process, were suspended by column buffer attached to the above Column Kit, and purified through a cell filter (pore size 70 μm) after centrifugation at 500×g, room temperature for 5 minutes. The cells were resuspended with column buffer, and antibody cocktails attached to the above Column Kit were added to this and mixed. After that, the cells were purified according to the protocol of the Column Kit.
Next, purification of CD45RB positive cells was performed by MACS (registered mark) separator (Miltenyi Biotec). The purified cells were suspended with 2 mL of PBS containing 0.5% BSA, and reacted at room temperature for 15 minutes after adding FITC (fluorescein isothiocyanate)-labeled anti-CD45RB antibody (Biolegend). After washing two times with PBS containing 0.5% BSA by centrifugation, the cells were resuspended with 2 mL of PBS containing 0.5% BSA and reacted at room temperature for 10 minutes after adding anti-FITC microbeads (Miltenyi Biotec). After washing one time with PBS containing 0.5% BSA by centrifugation, the cells were resuspended with 3 mL of PBS containing 0.5% BSA, and a fraction of CD45RB positive cells was purified according to the protocol of MACS (registered trademark) separator. In the process of elution after detached from MACS (registered trademark) separator, the cells were separated with 5 mL of PBS. The cell suspension was washed one time by centrifugation with PBS, resuspended by appropriate PBS and measured the cell number as naïve T cells suspension for transfer. Female CB17/Icr-scid/scid Jcl (SCID mice) (Charles River Japan, 8-weeks-old in use) were induced colitis by intraperitoneal administration of 500 μL (divided into 250 μL two times) of naïve T cells suspension prepared at 6×10^5 cells/mL by PBS.
(2) Measurement of Body Weight and Procedure for Administration of Drugs
Body weights were measured at day 1, 8 and 15 as day 0 when naïve T cells were transferred to mice. Mice were grouped evenly, based on body weight change at day 15. The measurement of body weight was performed two times a week after day 15. A solvent (Vehicle) and test compounds were administered twice a day from the evening of day 15. The administration solution was prepared as indicated below. Firstly, 0.5% methyl cellulose (Wako pure chemicals) of 1/10 volume of total volume was added to test compound, and a suspension was prepared by sonication. […] After that, administration solutions for test compounds were prepared by sonication while adding distilled water of 9/10 volume of total volume to these suspensions in several batches. A solution prepared in the same volume ratios of 0.5% methyl cellulose and distilled water as administration solutions for test compounds was used as vehicle. Administration solutions for vehicle or test compounds were orally administered to mice at 5 mL/kg.

blood lymphocytes = experiment: Confirmation test for reduction effects on the number of lymphocytes; format: in vivo, Male Sprague-Dawley rats; settings: rat, oral; for Number of lymphocytes (% of Vehicle) After 6 hours: 6 hours after administration; for Number of lymphocytes (% of Vehicle) After 24 hours: 24 hours after administration; for Number of lymphocytes (% of Vehicle) After 48 hours: 48 hours after administration
Description: Confirmation Test for Reduction Effects on the Number of Lymphocytes
Reduction effects on the number of blood lymphocytes by test compounds were confirmed using Male Sprague-Dawley rats (Japan SLC, 7-weeks-old in use). Administration solutions for test compounds were prepared on hot-plate at 50° C. After test compounds were dissolved by DMSO (dimethyl sulfoxide, Wako Pure Chemicals) of 1/10 volume of the total volume, WellSolve (Celeste) of 1/10 volume of the total volume was added to this solution. Further, distilled water (Otsuka Pharmaceutical Factory) of 8/10 volume of the total volume was added to this solution, and the administration solutions for test compounds were prepared. A solution, prepared in the same volume ratios of DMSO. WellSolve and distilled water as the administration solution for test compounds, was used as a solvent (Vehicle). Vehicle or test compound was administered orally to rats at 1 mL/body. After 6, 24 and 48 hours from administration of vehicle or test compounds, rats were held on the board at supine position under inhalation anesthesia with isoflurane (Abbott Japan). Blood samples (200 to 250 μL) were collected from the cervical vein of this rat using 1 mL syringes with needles of 25G. The collected blood samples were transferred to a microtube treated with EDTA-2K (Japan Becton Dickinson), and stored at room temperature after gently mixing with inversion. The number of lymphocytes was measured by ADVIA (registered mark) (Bayer), which is a multi-parameter automated blood cell counter using this blood samples. The average number of lymphocytes in vehicle-treated group (vehicle group) was defined as 100%, and the average number of lymphocytes in each test compound-treated group was calculated as % of vehicle. As Comparative Example 2, 1-{5-[1-(4-chloro-3-methyl-phenyl)-propylamino]-2-methyl-benzyl}-azetidine-3-carboxylic acid (patent literature 1, Example 4) was evaluated as well.

Row | Compound | Body weight change ratio (%) [1] [%] | Colon weight (%) [1] [%] | DAI score (%) [1] [%] | Number of lymphocytes (% of Vehicle) After 6 hours (blood lymphocytes; 10 mg/kg) | Number of lymphocytes (% of Vehicle) After 24 hours (blood lymphocytes; 10 mg/kg) | Number of lymphocytes (% of Vehicle) After 48 hours (blood lymphocytes; 10 mg/kg) | Number of lymphocytes (% of Vehicle) After 6 hours (blood lymphocytes; 1 mg/kg) | Number of lymphocytes (% of Vehicle) After 24 hours (blood lymphocytes; 1 mg/kg) | Number of lymphocytes (% of Vehicle) After 48 hours (blood lymphocytes; 1 mg/kg)
1 | CCN(c1ccc(Cl)c(C)c1)C(C)c1ccc(C)c(CN2CC(C(=O)O)C2)c1 (stereo not drawn) [Compound 2-6, 1-(5-{1-[(4-Chloro-3-methylphenyl)(ethyl)amino]ethyl}-2-methylbenzyl)azetidine-3-carboxylic acid] | 1.7 ± 1.1 | 36.8 ± 17.1 | 24.3 ± 11.8 | 9.9 % of Vehicle | 14.1 % of Vehicle | 65.7 % of Vehicle |  |  | 
2 | CCN(c1ccc(Cl)c(C(F)(F)F)c1)C(C)c1ccc(C)c(CN2CC(C(=O)O)C2)c1 (stereo not drawn) [Compound 2-7, 1-(5-{1-[(4-Chloro-3-trifluoromethylphenyl)(ethyl)amino]ethyl}-2-methylbenzyl)-azetidine-3-carboxylic acid] | 1.6 ± 1.2 | 32.4 ± 14.2 | 22.1 ± 14.8 | 10.9 % of Vehicle | 10.6 % of Vehicle | 13.2 % of Vehicle | 15.0 % of Vehicle | 11.1 % of Vehicle | 66.8 % of Vehicle
